According to patent US11078211B2, “Photoresponsive nucleotide analog capable of photocrosslinking in visible light region” (JAPAN ADVANCED INSTITUTE OF SCIENCE AND TECHNOLOGY, priority 2017, dated 2021):

Columns and labels:
[1] = irradiation with light having 350 nm; cited from earlier work
[2] = tested on: ODN(T) (5′-ACGGGTGCA-3′), thymine; test: Photocrosslinking reaction targeted for thymine, HPLC analysis after light irradiation; conditions: for conversion rate: irradiation for one hour
Description: (§1) To an equal amount mixture (5 μM in 50 mM Na-Cacodylate buffer (pH 7.4), 100 mM NaCl) of the oligo DNA containing pc-D [hereinafter referred to as ODN (Y·pc-D), in which Y is A (adenine) or G (guanine)] and a complementary oligo DNA [hereinafter referred to as ODN(Z), in which Z is T (thymine) or C (cytosine)] was added deoxyuridine (25 μM) as an internal standard, and irradiated with light at 4° C. (400 nm, […]). The solution was analyzed by HPLC (eluent: acetonitrile/50 mM of ammonium formate; 1-20% of acetonitrile/10 min; a flow rate: 0.2 mL/min) to evaluate photoreactivity.
FIG. 3a is an explanatory diagram showing the flow of the operations. In the ODN (A-pc-D)(5′-TGCAXCCGT-3′)(SEQ ID NO: 1) in which the target of photocrosslinking is thymine (T). the nucleoside analog (pc-D) according to the present invention is introduced as an improved photoreactive element at a position of X in the sequence.
Charts arranged in the vertical axis direction correspond to light irradiation times (0 sec, 1 sec, 5 sec. 10 sec, and 30 sec), and the horizontal axis indicates a retention time (minutes). The peaks of ODN (A⋅pc-D) and ODN (T), which were present before light irradiation (0 sec), were reduced by the light irradiation, and at the same time, a peak of a photodimer (ODN (pc-D/T)) with ODN (A⋅pc-D) and ODN (T) crosslinked appeared. As the light irradiation time increased, the peak area of(ODN (pc-D/T)) increased, confirming that the photocrosslinking reaction was progressing. FIG. 3c is a graph showing a change in a crosslinking rate as a function of light irradiation time. In FIG. 3c, the horizontal axis represents a light irradiation time (seconds), and the vertical axis represents a conversion rate (%). The conversion rate, i.e., a rate of change from a monomer to a dimer, was defined as a conversion rate of 100% for a case of being completely changed to the dimer.
The respective conversion rates were 86% at 450 nm, 70% at 500 nm, and 38% at 550 nm.
The photocrosslinking reaction was carried out by the same procedure as that of ODN (A-pc-D), using a pc-S-containing oligo DNA in which T (thymine) was a target for the photocrosslinking (5′-TGCAXCCGT-3′: hereinafter referred to as ODN (A-pc-S)) (SEQ ID NO: 5), and ODN (T) which was a complementary oligo DNA (FIG. 6a).
Charts arranged in the vertical axis direction correspond to light irradiation times (0 seconds, 60 seconds), respectively, and the horizontal axis indicates a retention time (minutes).

[3] = tested on: ODN (C) (5′-ACGGGCGCA-3′), cytosine; test: Photocrosslinking reaction targeted for cytosine, HPLC analysis after light irradiation; conditions: 400 nm, 30 seconds
Description: as §1
The photocrosslinking reaction was carried out by the same procedure as that of ODN (A⋅pc-D), using a pc-D-containing oligo DNA in which C (cytosine) was a target for the photocrosslinking (5′-TGCGXCCGT-3′; hereinafter referred to as ODN (G-pc-D)) (SEQ ID NO: 3) and a complementary oligo DNA (5′-ACGGGCGCA-3′: hereinafter referred to as ODN (C))(FIG. 4a)(SEQ ID NO: 4). As a result of irradiation with light having 400 nm for 30 seconds, the conversion rate by photocrosslinking was 71% (FIG. 4b).

For O=c1ccc2cc3ccoc3cc2o1 [psoralen], the “time required for photoreaction” value [1] is given as “several hours”.
For “ODN (A·pc-D): Oligo DNA 5′-TGCAXCCGT-3′, in which X is the nucleic acid photoreactive element (pc-D) (DNA TGCANCCGT; photoreactive element pc-D, chemistry not fully specified)”, the “conversion rate (monomer to photodimer)” value ([2]; 400 nm, 10 seconds of irradiation, 4° C., 5 μM, pH 7.4) was 94%, the crosslinking ([2]; 400 nm, after one hour, 4° C.) was roughly 100% and the conversion rate ([2]; 450 nm) was 86%. The conversion rate ([2]; 500 nm) was 70% and the conversion rate ([2]; 550 nm) was 38%.
With “ODN (A·pc-S): Oligo DNA 5′-TGCAXCCGT-3′, in which X is the nucleic acid photoreactive element (pc-S) (DNA TGCANCCGT; photoreactive element pc-S, chemistry not fully specified)” the “photodimer formation (HPLC)” value ([2]; 400 nm, 60 seconds) was “a peak of the photodimer (ODN (pc-S/T) appeared”.
For “ODN (G-pc-D): Oligo DNA 5′-TGCGXCCGT-3′, in which X is the nucleic acid photoreactive element (pc-D) (DNA TGCGNCCGT; photoreactive element pc-D, chemistry not fully specified)”, the “conversion rate by photocrosslinking” value [3] was 71%.
